SMILES strings stand for the structures.

This is an account of results in US9226902B2, “Stabilized transdermal drug delivery system” (Mylan Technologies Inc., priority 2008, dated 2016).

The data set can be described thus: Glass transition temperature (DSC). Conditions: amorphous form. The class given is physicochemical.

Description: The glass transition temperature of undispersed amorphous scopolamine is about 10° C.

`CN1[C@@H]2C[C@@H](OC(=O)[C@H](CO)c3ccccc3)C[C@H]1[C@@H]1O[C@@H]12` [undispersed amorphous scopolamine, scopolamine]: the “glass transition temperature (Tg)” value is “about 10 °C”.
